According to patent publication US11795152B2, “Crystal form of tafamidis and preparation method therefor and use thereof” (CRYSTAL PHARMACEUTICAL (SUZHOU) CO., LTD., priority 2019, dated 2023):

Legend:
Type in all cases: physicochemical
[1] = Hygroscopicity by dynamic vapor sorption (DVS); conditions: 80% RH
Description: Dynamic Vapor Sorption (DVS) is measured via a SMS (Surface Measurement Systems Ltd.) intrinsic DVS instrument. Its control software is DVS-Intrinsic control software. Typical parameters for DVS tests are as follows:
Gas and flow rate: N2, 200 mL/min
RH range: 0% RH to 95% RH
The weight gains at each relative humidity were recorded in a cycle of 0-95%-0 RH. The XRPD patterns were collected before and after the DVS test and depicted in FIG. 11.
Description and definition of hygroscopicity (general notice 9103 drug hygroscopicity test guidelines in 2015 edition of Chinese Pharmacopoeia, test at 25° C.+/−1° C., 80% RH. The definition of hygroscopicity in the 9th European Pharmacopoeia 5.11 is in consistent with the Chinese Pharmacopoeia.). • deliquescent: sufficient water is absorbed to form a solution. • very hygroscopic: increase in mass is equal to or greater than 15 percent. • hygroscopic: increase in mass is less than 15 percent and equal to or greater than 2 percent. • slightly hygroscopic: increase in mass is less than 2 percent and equal to or greater than 0.2 percent. • non hygroscopic or almost non hygroscopic: Increase in mass is less than 0.2%.
The weight gains at each relative humidity were recorded in a cycle of 0-95%-0RH. The XRPD patterns were collected before and after the DVS test and depicted in FIG. 22. […] Form CSVI is slightly hygroscopic.
The weight gains at each relative humidity were recorded in a cycle of 0-95%-0RH. The XRPD patterns were collected before and after the DVS test and depicted in FIG. 31.

[2] = Dissolution profile of tablets in pH6.8 PBS+1% Tween 80; conditions: tablet 61 mg, paddle 75 rpm, 37° C.
Description: (§1) The cumulative dissolution was measured at different time in pH6.8 PBS+1% Tween 80 and pH6.8 PBS+3% Tween 80. The dissolution results are presented in Table 24 (FIG. 23) and Table 25 (FIG. 24).
The cumulative dissolution was measured at different time in pH6.8 PBS+1% Tween 80.

[3] = Dissolution profile of tablets in pH6.8 PBS+3% Tween 80; conditions: tablet 61 mg, paddle 75 rpm, 37° C.
Description: as §1

[4] = Stability of drug substance on storage (XRPD, HPLC purity); conditions: for chemical purity during storage: drug substance
Text: Crystalline form and chemical impurity were checked by XRPD and HPLC, respectively.
Crystalline form and purity were checked by XRPD and HPLC, respectively.

[5] = 40° C./75% RH, Sealed, 6 months
[6] = 60° C./75% RH, Sealed, 2 months

Compound: O=C(O)CCCC(=O)O.O=C(O)c1ccc2nc(-c3cc(Cl)cc(Cl)c3)oc2c1.O=C(O)c1ccc2nc(-c3cc(Cl)cc(Cl)c3)oc2c1 [Form CSVI]
- Weight gain ([1]; 25° C., DVS): 0.21%
- hygroscopicity ([1]; pharmacopoeia definition): slightly hygroscopic (increase in mass is less than 2 percent and equal to or greater than 0.2 percent)
- Cumulative drug release in pH 6.8 PBS + 1% Tween 80 (%) ([2]; 0 min): 0.0%
- Cumulative drug release in pH 6.8 PBS + 1% Tween 80 (%) ([2]; 5 min): 19.1%
- Cumulative drug release in pH 6.8 PBS + 1% Tween 80 (%) ([2]; 10 min): 28.3%
- Cumulative drug release in pH 6.8 PBS + 1% Tween 80 (%) ([2]; 15 min): 34.7%
- Cumulative drug release in pH 6.8 PBS + 1% Tween 80 (%) ([2]; 20 min): 39.8%
- Cumulative drug release in pH 6.8 PBS + 1% Tween 80 (%) ([2]; 30 min): 47.4%
- Cumulative drug release in pH 6.8 PBS + 1% Tween 80 (%) ([2]; 45 min): 56.0%
- Cumulative drug release in pH 6.8 PBS + 1% Tween 80 (%) ([2]; 60 min): 62.1%
- Cumulative drug release in pH 6.8 PBS + 1% Tween 80 (%) ([2]; 90 min): 70.4%
- Cumulative drug release in pH 6.8 PBS + 1% Tween 80 (%) ([2]; 120 min): 75.7%
- Cumulative drug release in pH 6.8 PBS + 1% Tween 80 (%) ([2]; 150 min): 80.7%
- Cumulative drug release in pH 6.8 PBS + 3% Tween 80 (%) ([3]; 0 min): 0.0%
- Cumulative drug release in pH 6.8 PBS + 3% Tween 80 (%) ([3]; 5 min): 27.0%
- Cumulative drug release in pH 6.8 PBS + 3% Tween 80 (%) ([3]; 10 min): 38.2%
- Cumulative drug release in pH 6.8 PBS + 3% Tween 80 (%) ([3]; 15 min): 46.4%
- Cumulative drug release in pH 6.8 PBS + 3% Tween 80 (%) ([3]; 20 min): 51.9%
- Cumulative drug release in pH 6.8 PBS + 3% Tween 80 (%) ([3]; 30 min): 60.4%
- Cumulative drug release in pH 6.8 PBS + 3% Tween 80 (%) ([3]; 45 min): 68.5%
- Cumulative drug release in pH 6.8 PBS + 3% Tween 80 (%) ([3]; 60 min): 73.8%
- Cumulative drug release in pH 6.8 PBS + 3% Tween 80 (%) ([3]; 90 min): 79.2%
- Cumulative drug release in pH 6.8 PBS + 3% Tween 80 (%) ([3]; 120 min): 81.9%
- Purity ([4]; 25° C./60% RH, Open, 6 months): 99.96%
- Solid Form ([4]; 25° C./60% RH, Open, 6 months): Form CSVI
- Purity ([4]; 40° C./75% RH, Open, 6 months): 99.95%
- Solid Form ([4]; 40° C./75% RH, Open, 6 months): Form CSVI
- Purity [4, 5]: 99.95%
- Solid Form [4, 5]: Form CSVI
- Purity [4, 6]: 99.95%
- Solid Form [4, 6]: Form CSVI
- Purity ([4]; Initial): 99.95%
- Solid Form ([4]; Initial): Form CSVI
- chemical purity during storage ([4]; 25° C./60% RH): above 99.9%
- chemical purity during storage ([4]; 40° C./75% RH and 60° C./75% RH): above 99.9%
